Source: patent US11427549B2, “Pyrimidinyloxy benzo-fused compounds as herbicides” (FMC Corporation, priority 2017, dated 2022)

Tests used:
[1] = system: barnyardgrass (Echinochloa crus-galli); test: Test A preemergence, barnyardgrass; format: in vivo; settings: Echinochloa crus-galli, pre-emergence, 240 h, 0 to 100 scale (0 no effect, 100 complete control), read-out: Plant response rating, Barnyardgrass; for pest or weed control at 31 g/ha: 31 g ai/ha; for pest or weed control at 125 g/ha: 125 g ai/ha
From the text: (§1) Seeds of plant species selected from barnyardgrass (Echinochloa crus-galli), kochia (Kochia scoparia), ragweed (common ragweed, Ambrosia elatior), ryegrass, Italian (Italian ryegrass, Lolium multiflorum), foxtail, giant (giant foxtail, Setaria faberii), foxtail, green (green foxtail, Setaria viridis) and pigweed (Amaranthus retroflexus) were planted into a blend of loam soil and sand and treated preemergence with a directed soil spray using test chemicals formulated in a non-phytotoxic solvent mixture which included a surfactant.
(§2) At the same time, plants selected from these weed species and also wheat (Triticum aestivum), corn (Zea mays), blackgrass (Alopecurus myosuroides), and galium (catchweed bedstraw, Galium aparine) were planted in pots containing the same blend of loam soil and sand and treated with postemergence applications of test chemicals formulated in the same manner. Plants ranged in height from 2 to 10 cm and were in the one- to two-leaf stage for the postemergence treatment. Treated plants and untreated controls were maintained in a greenhouse for approximately 10 days, after which time all treated plants were compared to untreated controls and visually evaluated for injury. […] A dash (-) response means no test result.

kochia (Kochia scoparia) [2] = test: Test A preemergence, kochia; format: in vivo; settings: Bassia scoparia, pre-emergence, 240 h, 0 to 100 scale (0 no effect, 100 complete control), read-out: Plant response rating, Kochia; for pest or weed control at 31 g/ha: 31 g ai/ha; for pest or weed control at 125 g/ha: 125 g ai/ha
From the text: as §1, §2

[3] = system: ragweed (common ragweed, Ambrosia elatior); test: Test A preemergence, ragweed; format: in vivo; settings: Ambrosia artemisiifolia, pre-emergence, 240 h, 0 to 100 scale (0 no effect, 100 complete control), read-out: Plant response rating, Ragweed
From the text: as §1, §2

[4] = system: ryegrass, Italian (Italian ryegrass, Lolium multiflorum); test: Test A preemergence, ryegrass, Italian; format: in vivo; settings: Lolium multiflorum, pre-emergence, 240 h, 0 to 100 scale (0 no effect, 100 complete control), read-out: Plant response rating, Ryegrass, Italian; for pest or weed control at 31 g/ha: 31 g ai/ha; for pest or weed control at 125 g/ha: 125 g ai/ha
From the text: as §1, §2

[5] = system: pigweed (Amaranthus retroflexus); test: Test A preemergence, pigweed; format: in vivo; settings: Amaranthus retroflexus, pre-emergence, 240 h, 0 to 100 scale (0 no effect, 100 complete control), read-out: Plant response rating, Pigweed; for pest or weed control at 31 g/ha: 31 g ai/ha; for pest or weed control at 125 g/ha: 125 g ai/ha
From the text: as §1, §2

[6] = system: barnyardgrass (Echinochloa crus-galli); test: Test A postemergence, barnyardgrass; format: in vivo; settings: Echinochloa crus-galli, post-emergence, 240 h, 0 to 100 scale (0 no effect, 100 complete control), read-out: Plant response rating, Barnyardgrass; for pest or weed control at 31 g/ha: 31 g ai/ha; for pest or weed control at 125 g/ha: 125 g ai/ha
From the text: as §1, §2

kochia (Kochia scoparia) [7] = test: Test A postemergence, kochia; format: in vivo; settings: Bassia scoparia, post-emergence, 240 h, 0 to 100 scale (0 no effect, 100 complete control), read-out: Plant response rating, Kochia; for pest or weed control at 31 g/ha: 31 g ai/ha; for pest or weed control at 125 g/ha: 125 g ai/ha
From the text: as §1, §2

[8] = system: ragweed (common ragweed, Ambrosia elatior); test: Test A postemergence, ragweed; format: in vivo; settings: Ambrosia artemisiifolia, post-emergence, 240 h, 0 to 100 scale (0 no effect, 100 complete control), read-out: Plant response rating, Ragweed; for pest or weed control at 31 g/ha: 31 g ai/ha; for pest or weed control at 125 g/ha: 125 g ai/ha
From the text: as §1, §2

[9] = system: ryegrass, Italian (Italian ryegrass, Lolium multiflorum); test: Test A postemergence, ryegrass, Italian; format: in vivo; settings: Lolium multiflorum, post-emergence, 240 h, 0 to 100 scale (0 no effect, 100 complete control), read-out: Plant response rating, Ryegrass, Italian; for pest or weed control at 31 g/ha: 31 g ai/ha; for pest or weed control at 125 g/ha: 125 g ai/ha
From the text: as §1, §2

[10] = system: pigweed (Amaranthus retroflexus); test: Test A postemergence, pigweed; format: in vivo; settings: Amaranthus retroflexus, post-emergence, 240 h, 0 to 100 scale (0 no effect, 100 complete control), read-out: Plant response rating, Pigweed; for pest or weed control at 31 g/ha: 31 g ai/ha; for pest or weed control at 125 g/ha: 125 g ai/ha
From the text: as §1, §2

[11] = system: wheat (Triticum aestivum); test: Test A postemergence, wheat; format: in vivo; settings: Triticum aestivum, post-emergence, 240 h, 0 to 100 scale (0 no effect, 100 complete control), read-out: Plant response rating, Wheat; for plant injury at 31 g/ha: 31 g ai/ha; for plant injury at 125 g/ha: 125 g ai/ha
From the text: as §1, §2

corn (Zea mays) = test: Test A postemergence, corn; format: in vivo; settings: Zea mays, post-emergence, 240 h, 0 to 100 scale (0 no effect, 100 complete control); for Corn plant response rating (crop injury, 0 = no effect, 100 = complete kill) at 31 g/ha: 31 g ai/ha; for Corn plant response rating (crop injury, 0 = no effect, 100 = complete kill) at 125 g/ha: 125 g ai/ha
From the text: as §1, §2

[12] = system: blackgrass (Alopecurus myosuroides); test: Test A postemergence, blackgrass; format: in vivo; settings: Alopecurus myosuroides, post-emergence, 240 h, 0 to 100 scale (0 no effect, 100 complete control), read-out: Plant response rating, Blackgrass; for pest or weed control at 31 g/ha: 31 g ai/ha; for pest or weed control at 125 g/ha: 125 g ai/ha
From the text: as §1, §2

[13] = system: galium (catchweed bedstraw, Galium aparine); test: Test A postemergence, galium; format: in vivo; settings: Galium, post-emergence, 240 h, 0 to 100 scale (0 no effect, 100 complete control), read-out: Plant response rating, Galium; for pest or weed control at 31 g/ha: 31 g ai/ha; for pest or weed control at 125 g/ha: 125 g ai/ha
From the text: as §1, §2

rice (Oryza sativa) = test: Test B flooded paddy test, rice; settings: Oryza sativa, read-out: Plant response rating, Rice (0 to 100 scale, 0 is no effect, 100 is complete control)
[14] = system: ducksalad (Heteranthera limosa); test: Test B flooded paddy test, ducksalad; settings: Heteranthera limosa, read-out: Plant response rating, Ducksalad (0 to 100 scale, 0 is no effect, 100 is complete control)
[15] = system: barnyardgrass (Echinochloa crus-galli); test: Test B flooded paddy test, barnyardgrass; settings: Echinochloa crus-galli, read-out: Plant response rating, Barnyardgrass (0 to 100 scale, 0 is no effect, 100 is complete control)

Structure (SMILES)	pest or weed control at 31 g/ha [1] [%]	pest or weed control at 125 g/ha [1] [%]	pest or weed control at 31 g/ha (kochia (Kochia scoparia) [2]) [%]	pest or weed control at 125 g/ha (kochia (Kochia scoparia) [2]) [%]	pest or weed control at 31 g/ha [4] [%]	pest or weed control at 125 g/ha [4] [%]	pest or weed control at 31 g/ha [5] [%]	pest or weed control at 125 g/ha [5] [%]	pest or weed control at 31 g/ha [6] [%]	pest or weed control at 125 g/ha [6] [%]	pest or weed control at 31 g/ha (kochia (Kochia scoparia) [7]) [%]	pest or weed control at 125 g/ha (kochia (Kochia scoparia) [7]) [%]	pest or weed control at 31 g/ha [8] [%]	pest or weed control at 125 g/ha [8] [%]	pest or weed control at 31 g/ha [9] [%]	pest or weed control at 125 g/ha [9] [%]	pest or weed control at 31 g/ha [10] [%]	pest or weed control at 125 g/ha [10] [%]	plant injury at 31 g/ha [11] [%]	plant injury at 125 g/ha [11] [%]	other results
O=C1OCc2cccc(Oc3ncc(Cl)cn3)c2C1CCCC(F)(F)F (stereo not drawn) [Compound 26, 5-[(5-Chloro-2-pyrimidinyl)oxy]-1,4-dihydro-4-(4,4,4-trifluorobutyl)-3H-2-benzopyran-3-one]	0	30	0	20	0	10	20	100	100	100	20	60	0	10	0	0	30	60	0	0	pest or weed control at 31 g/ha ([3]; 31 g ai/ha): 0%; pest or weed control at 125 g/ha ([3]; 125 g ai/ha): 0%; Corn plant response rating (crop injury, 0 = no effect, 100 = complete kill) at 31 g/ha (corn (Zea mays)): 10%; Corn plant response rating (crop injury, 0 = no effect, 100 = complete kill) at 125 g/ha (corn (Zea mays)): 20%; pest or weed control at 31 g/ha [12]: 0%; pest or weed control at 125 g/ha [12]: 0%; pest or weed control at 31 g/ha [13]: 20%; pest or weed control at 125 g/ha [13]: 50%
FC(F)(F)CCCC1COc2cccc(Oc3ncc(Cl)cn3)c21 (stereo not drawn) [Compound 33, 5-Chloro-2-[[2,3-dihydro-3-(4,4,4-trifluorobutyl)-4-benzofuranyl]oxy]pyrimidine]	0	50	0	0	0	50	0	10	10	20	30	40	0	10	0	0	20	30	0	0	Corn plant response rating (crop injury, 0 = no effect, 100 = complete kill) at 31 g/ha (corn (Zea mays)): 0%; Corn plant response rating (crop injury, 0 = no effect, 100 = complete kill) at 125 g/ha (corn (Zea mays)): 0%; pest or weed control at 31 g/ha [12]: 0%; pest or weed control at 125 g/ha [12]: 20%; pest or weed control at 31 g/ha [13]: 50%; pest or weed control at 125 g/ha [13]: 70%; plant injury at 250 g/ha (rice (Oryza sativa)): 0%; pest or weed control at 250 g/ha [14]: 70%; pest or weed control at 250 g/ha [15]: 0%
